{"source": "patent US20250154193A1", "about": "“STEROID COMPOUND, AND PREPARATION METHOD THEREFOR AND APPLICATION THEREOF” (CHOLESGEN (SHANGHAI) CO., LTD., priority 2022, published 2025)", "key": {"[1]": {"assay": "Liver microsomal metabolic stability assay", "format": "in vitro ADME", "conditions": "rat liver microsomes, NADPH, 37° C., 0-60 minutes; read-out: Rat microsomal metabolic half-life (t1/2)", "method": "PBS solution (100 mM), MgCl2 solution (100 mM), and NADPH solution (20 mM) were prepared respectively. Compound and testosterone (positive control) stock solutions were then prepared with dimethyl sulfoxide (DMSO), diluted to 100 µM with methanol for sample incubation, and stored at −10 to −30° C. 12.5 μL of rat liver microsomes (purchased from XenoTech, Cat. No.: R1000, Lot No.: 1310030, specification: 20 mg/mL), 432.5 µL of PBS solution (100 mM), 25 µL of NADPH solution (20 mM), and 25 μL of MgCl2 solution (100 mM) were added to a 96-well plate, mixed well, and pre-incubated at 37° C. for 5 minutes. 5 µL of substrate (test compound) solution was added to start the reaction. At specified time points of 0, 5, 15, 30, 45, and 60 minutes (0 and 60 minutes for the negative control group), 50 µL of the incubated samples were added to a stop plate containing 100 µL of ice-cold stop solution, vortexed for 1 minute to inactivate the reaction, and stored at −60 to −90° C. for subsequent analysis. Sample analysis of the test compound and the control compound testosterone was performed using LC-MS/MS method. Chromatographic peaks were integrated, calculated, and processed using Analyst software. Semi-quantitative analysis was performed for both the test compound and the control compound testosterone by calculating peak area ratios."}, "liver organoids [2]": {"test_system": "liver organoids", "assay": "Real-time quantitative PCR of lipogenesis- and fibrosis-related genes in fatty liver organoids", "format": "cell-based, mice", "conditions": "mouse fatty liver organoids, 1 and 3 μM, 72 hours, qPCR", "from_the_text": "Liver samples or liver organoid samples were homogenized in TRI Reagent (T9424, Sigma), and total RNA was extracted according to the manufacturer's instructions. Equal amounts of RNA template were used to synthesize cDNA with oligo dT primers and MLV reverse transcriptase (Promega). Quantitative data for genes were collected using the Bio-Rad CFX96 real-time PCR system, and the relative amount of gene mRNA was quantified using the comparative CT method.\n(§1) C57BL/6N mice were fed with fatty liver-inducing diet (TrophicDiet, TP2630052A, containing 10.2% kcal protein, 37.3% kcal carbohydrate, and 52.6% kcal fat) and fructose-containing drinking water (23.1 g of fructose and 18.9 g of dextrose were dissolved in 1 L of water, then filtered and sterilized) for a total of 16 weeks starting at 12 weeks of age to generate a fatty liver model. To generate fatty liver organoids, liver tissues from mice with fatty liver were minced and digested in digestion buffer at 37° C. for 30 to 60 minutes. The digestion buffer included DMEM/F-12 (Cytiva, SH30023.01), 2.5 mg/mL collagenase D (Roche, COLLD-RO), and 0.1 mg/mL DNaseI (Sigma-Aldrich, DN25). […]\nTo distinguish whether the inhibitory effect of 25-hydroxylanosterol is directly based on its effect on the liver or a systemic effect, we utilized 3D liver organoids as an in vitro model for the study of fatty liver to analyze the effect of 25-hydroxylanosterol on lipogenesis and fibrosis marker expression in liver organoids. […] RNA from the organoids was collected and analyzed for the differential expression of lipogenesis-related genes (Hmgcs, Hmgcr, SCD1, and FASN) and fibrosis markers (αSMA and Colla1) using fluorescent real-time quantitative PCR.\n(§2) In FIGS. 35 and 36, data are represented as mean±standard deviation. P values were calculated using one-way ANOVA; ns indicates no statistical difference; * indicates P<0.05; ** indicates P<0.01; *** indicates P<0.001. In FIGS. 47 and 53, quantitative analysis was performed using ImageJ software. […] P values were calculated using one-way ANOVA; * indicates P<0.05; ** indicates P<0.01; *** indicates P<0.001."}, "liver organoids [3]": {"test_system": "liver organoids", "assay": "Nile Red and αSMA immunofluorescence staining of fatty liver organoids", "format": "cell-based, mice", "conditions": "mouse fatty liver organoids, 1 and 3 μM, 72 hours", "method": "as §1, with “DN25). Isolated single hepatocytes were filtered through a 70 μm filter membrane and washed once. Cells were collected by centrifugation, and resuspended in a mixture of culture medium and basement membrane extract (BME) (R&D Systems, 3533-010-02) at a ratio of 1:3.” for “DN25).”\nas §2"}}, "data": [{"molecule": "C[C@H](CCCC(C)(C)O)[C@H]1CC[C@@]2(C)C3=C(CC[C@]12C)[C@@]1(C)CC[C@H](O)C(C)(C)[C@@H]1CC3", "note": "[compound 68, (1R,3aR,5aR,7S,9aS,11aR)-1-[(2R)-6-hydroxy-6-methylheptan-2-yl]-3a,6,6,9a,11a-pentamethyl-2,3,3a,4,5,5a,6,7,8,9,9a,10,11,11a-tetradecahydro-1H-cyclopenta[1,2-a]phenanthren-7-ol]", "values": [{"measurement": "half-life at 1 µM", "setting": "[1]", "value": 8.36, "unit": "min"}, {"measurement": "expression levels of fibrosis-related genes (Col1a1 and αSMA)", "setting": "liver organoids [2]", "value": "significantly inhibited"}, {"measurement": "expression levels of lipogenesis-related genes (Hmgcs, Hmgcr, SCD1, and FASN)", "setting": "liver organoids [2]", "value": "significantly inhibited"}, {"measurement": "expression of fibrosis marker protein αSMA (immunofluorescence staining)", "setting": "liver organoids [3]", "value": "decreasing"}, {"measurement": "lipid accumulation in organoids (Nile Red staining)", "setting": "liver organoids [3]", "value": "reduced"}]}]}
